According to ChEMBL document CHEMBL5036340 (Eur J Med Chem, 2021):
Activity calls are given as the source filed them. The rule behind the calls is not given here.

Legend:
Acetylcholinesterase = molecular target: T1, Acetylcholinesterase (Rattus norvegicus, UniProt P37136); assay: Inhibition of rat cortex AChE using acetylthiocholine iodide as substrate by Ellman's method
T1 sequence (P37136 whole entry): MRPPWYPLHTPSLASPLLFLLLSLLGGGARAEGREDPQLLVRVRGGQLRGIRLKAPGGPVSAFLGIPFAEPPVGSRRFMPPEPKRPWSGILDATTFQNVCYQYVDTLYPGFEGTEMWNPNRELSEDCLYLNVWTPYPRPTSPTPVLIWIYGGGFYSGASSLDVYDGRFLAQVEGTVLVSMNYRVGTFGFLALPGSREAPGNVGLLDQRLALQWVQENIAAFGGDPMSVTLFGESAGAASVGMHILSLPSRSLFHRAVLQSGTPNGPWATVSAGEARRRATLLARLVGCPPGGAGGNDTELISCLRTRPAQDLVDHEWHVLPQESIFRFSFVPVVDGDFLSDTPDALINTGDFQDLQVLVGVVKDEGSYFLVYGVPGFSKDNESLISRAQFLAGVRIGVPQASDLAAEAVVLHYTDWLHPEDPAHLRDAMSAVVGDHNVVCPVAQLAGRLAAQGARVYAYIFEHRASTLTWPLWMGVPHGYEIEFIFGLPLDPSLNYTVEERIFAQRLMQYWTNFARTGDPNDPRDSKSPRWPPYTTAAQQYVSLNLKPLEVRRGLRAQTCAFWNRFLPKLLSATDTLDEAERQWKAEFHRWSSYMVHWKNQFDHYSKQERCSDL

HepG2 = assay: cells; format: functional, cell-based; conditions: Homo sapiens, HepG2, 24 h
Description: Cytotoxicity against human HepG2 cells assessed as reduction in cell viability incubated for 24 hrs by MTT assay

Butyrylcholinesterase = Butyrylcholinesterase (Rattus norvegicus, UniProt Q9JKC1)
Description: Inhibition of rat serum BChE using butyrylthiocholine iodide as substrate by Ellman's method

[1] = molecular target: Voltage-gated inwardly rectifying potassium channel KCNH2 (Homo sapiens, UniProt Q12809)
Description: Inhibition of hERG expressed in CHO-K1 cells assessed as reduction in thallium influx incubated for 30 minutes by FLIPR

in vitro = conditions: rat, HepG2 cells
Description: Ratio of IC50 for cytotoxicity against human HepG2 cells to ratio of IC50 for inhibition of rat cortex AChE

[2] = AUC (0 to t) in C57BL/6 mouse plasma at 10 mg/kg, po administered as single dose measured upto 24 hrs by UPLC analysis; format: ADME, organism-based; design: route oral, dose 10 mg/kg, time <=24; conditions: in vivo
[3] = molecular target: T2, Acetylcholinesterase (Rattus norvegicus) (UniProt P37136); assay: Mixed-type inhibition of rat cortex AChE at 0.5 to 1.5 nM using varying levels of acetylthiocholine iodide as substrate measured at 5 minutes by Ellman's method based Lineweaver-Burk plot analysis; conditions: dose 0.5-1.5 nM
T2 sequence (whole entry): T1 sequence (P37136 whole entry)

[4] = Tmax in C57BL/6 mouse liver at 10 mg/kg, po administered as single dose by UPLC analysis; format: ADME, organism-based
Hippocampus = assay: Anti-alzheimer activity in theta-burst stimulated C57BL/6 mouse hippocampus CA3 region assessed as enhancement of synaptic strength by measuring long term potentiation in brain slice at 3 mg/kg, po for 4 days by electrophysiological recording relative to control; format: functional, organism-based; conditions: time 4.0 day
[5] = Terminal half life in C57BL/6 mouse liver at 10 mg/kg, po administered as single dose by UPLC analysis; format: ADME, organism-based; conditions: read-out: beta t1/2 (converted)
Mus musculus = species: Mus musculus; assay: Anti-alzheimer activity in C57BL/6 mouse assessed as decrease in pirenzepine induced LTP at 1 microM pretreated for 90 mins and further incubated with pirenzepine for 30 mins followed by high frequency stimulation by electrophysiological recording; format: functional, organism-based; conditions: time 120.0 min
[6] = Terminal half life in C57BL/6 mouse brain at 10 mg/kg, po administered as single dose measured upto 24 hrs by UPLC analysis; format: ADME, organism-based; conditions: read-out: beta t1/2 (converted)
[7] = MRT (0 to infinity) in C57BL/6 mouse liver at 10 mg/kg, po administered as single dose by UPLC analysis; format: ADME, organism-based
[8] = Terminal half life in C57BL/6 mouse plasma at 10 mg/kg, po administered as single dose measured upto 24 hrs by UPLC analysis; format: ADME, organism-based; conditions: read-out: beta t1/2 (converted)
[9] = AUC (0 to infinity) in C57BL/6 mouse kidney at 10 mg/kg, po administered as single dose by UPLC analysis; format: ADME, organism-based; design: route oral, time infinity, dose 10 mg/kg; conditions: in vivo
[10] = AUC (0 to infinity) in C57BL/6 mouse brain at 10 mg/kg, po administered as single dose measured upto 24 hrs by UPLC analysis; format: ADME, organism-based; design: route oral, dose 10 mg/kg, time <=24; conditions: in vivo
[11] = AUC (0 to infinity) in C57BL/6 mouse plasma at 10 mg/kg, po administered as single dose measured upto 24 hrs by UPLC analysis; format: ADME, organism-based; design: route oral, dose 10 mg/kg, time <=24; conditions: in vivo
[12] = MRT (0 to infinity) in C57BL/6 mouse plasma at 10 mg/kg, po administered as single dose measured upto 24 hrs by UPLC analysis; format: ADME, organism-based
[13] = AUC (0 to infinity) in C57BL/6 mouse liver at 10 mg/kg, po administered as single dose by UPLC analysis; format: ADME, organism-based; design: time infinity, route oral, dose 10 mg/kg; conditions: in vivo
[14] = MRT (0 to infinity) in C57BL/6 mouse kidney at 10 mg/kg, po administered as single dose by UPLC analysis; format: ADME, organism-based
[15] = Tmax in C57BL/6 mouse plasma at 10 mg/kg, po administered as single dose measured upto 24 hrs by UPLC analysis; format: ADME, organism-based
[16] = Terminal half life in C57BL/6 mouse kidney at 10 mg/kg, po administered as single dose by UPLC analysis; format: ADME, organism-based; conditions: read-out: beta t1/2 (converted)
[17] = Cmax in C57BL/6 mouse brain at 10 mg/kg, po administered as single dose measured at […] by UPLC analysis; format: ADME, organism-based
[18] = Cmax in C57BL/6 mouse kidney at 10 mg/kg, po administered as single dose measured at 2.50 hrs by UPLC analysis; format: ADME, organism-based; design: route oral, time 2.5 hrs, dose 10 mg/kg
[19] = Cmax in C57BL/6 mouse plasma at 10 mg/kg, po administered as single dose measured at 2.25 hrs by UPLC analysis; format: ADME, organism-based; design: route oral, dose 10 mg/kg, time 2.25 hrs
[20] = Cmax in C57BL/6 mouse liver at 10 mg/kg, po administered as single dose measured at 1.75 hrs by UPLC analysis; format: ADME, organism-based; design: route oral, time 1.75 hrs, dose 10 mg/kg
[21] = Drug concentration in C57BL/6 mouse muscle at 10 mg/kg, po administered as single dose by UPLC analysis; format: ADME, organism-based, Muscle tissue; conditions: in vivo
[22] = Tmax in C57BL/6 mouse brain at 10 mg/kg, po administered as single dose measured upto 24 hrs by UPLC analysis; format: ADME, organism-based
[23] = Tmax in C57BL/6 mouse kidney at 10 mg/kg, po administered as single dose by UPLC analysis; format: ADME, organism-based
[24] = MRT (0 to infinity) in C57BL/6 mouse brain at 10 mg/kg, po administered as single dose measured upto 24 hrs by UPLC analysis; format: ADME, organism-based

Chain of Butyrylcholinesterase (Q9JKC1 whole entry): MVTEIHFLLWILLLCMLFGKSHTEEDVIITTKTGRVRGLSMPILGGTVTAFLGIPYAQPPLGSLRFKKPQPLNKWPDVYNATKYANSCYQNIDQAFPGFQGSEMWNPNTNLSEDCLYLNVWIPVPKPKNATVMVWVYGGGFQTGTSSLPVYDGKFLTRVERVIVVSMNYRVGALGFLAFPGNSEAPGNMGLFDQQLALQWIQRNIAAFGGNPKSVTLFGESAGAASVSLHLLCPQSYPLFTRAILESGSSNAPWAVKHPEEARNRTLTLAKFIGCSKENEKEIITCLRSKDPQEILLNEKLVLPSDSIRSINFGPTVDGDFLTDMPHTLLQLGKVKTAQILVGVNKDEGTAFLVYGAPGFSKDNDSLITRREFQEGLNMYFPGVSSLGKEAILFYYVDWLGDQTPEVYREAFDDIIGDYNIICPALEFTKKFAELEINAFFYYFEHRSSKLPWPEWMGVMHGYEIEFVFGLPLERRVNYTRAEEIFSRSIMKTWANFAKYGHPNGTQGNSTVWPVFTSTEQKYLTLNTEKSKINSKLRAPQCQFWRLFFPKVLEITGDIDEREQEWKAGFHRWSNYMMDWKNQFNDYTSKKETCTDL
Chain of Voltage-gated inwardly rectifying potassium channel KCNH2 (Q12809 whole entry): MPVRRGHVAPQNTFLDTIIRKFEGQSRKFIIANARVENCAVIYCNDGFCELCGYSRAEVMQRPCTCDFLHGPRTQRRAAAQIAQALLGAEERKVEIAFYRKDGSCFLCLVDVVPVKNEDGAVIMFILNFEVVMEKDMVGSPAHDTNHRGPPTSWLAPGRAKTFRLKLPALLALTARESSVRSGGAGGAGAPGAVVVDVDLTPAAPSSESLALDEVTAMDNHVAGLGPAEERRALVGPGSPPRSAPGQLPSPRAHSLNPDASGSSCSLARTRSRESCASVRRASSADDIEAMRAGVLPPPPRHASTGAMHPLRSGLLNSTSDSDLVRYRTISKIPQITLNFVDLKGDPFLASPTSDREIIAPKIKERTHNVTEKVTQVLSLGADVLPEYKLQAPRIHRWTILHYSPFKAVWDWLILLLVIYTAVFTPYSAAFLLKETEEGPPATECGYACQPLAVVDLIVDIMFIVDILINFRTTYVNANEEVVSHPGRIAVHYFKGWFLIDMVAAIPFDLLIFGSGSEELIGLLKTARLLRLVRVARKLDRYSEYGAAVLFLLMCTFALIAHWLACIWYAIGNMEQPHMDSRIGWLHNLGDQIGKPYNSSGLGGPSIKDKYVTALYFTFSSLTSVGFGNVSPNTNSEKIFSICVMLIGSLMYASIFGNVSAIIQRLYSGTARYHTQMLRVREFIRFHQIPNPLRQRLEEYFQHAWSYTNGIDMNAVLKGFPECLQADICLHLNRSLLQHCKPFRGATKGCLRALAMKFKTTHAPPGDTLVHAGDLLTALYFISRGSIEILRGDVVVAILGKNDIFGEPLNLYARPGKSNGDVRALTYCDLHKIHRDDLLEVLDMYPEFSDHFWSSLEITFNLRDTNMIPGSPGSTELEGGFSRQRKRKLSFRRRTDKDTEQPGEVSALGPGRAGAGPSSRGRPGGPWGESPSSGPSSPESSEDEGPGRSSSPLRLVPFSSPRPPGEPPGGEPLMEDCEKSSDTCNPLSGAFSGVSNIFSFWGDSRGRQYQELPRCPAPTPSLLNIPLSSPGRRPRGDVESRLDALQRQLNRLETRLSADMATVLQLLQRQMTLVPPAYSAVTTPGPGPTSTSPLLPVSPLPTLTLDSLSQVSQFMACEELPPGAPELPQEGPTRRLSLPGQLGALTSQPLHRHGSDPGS

O=c1ccc2c([nH]1)CCC(NCCCCCCCCCNc1c3c(nc4cc(Cl)ccc14)CCCC3)C2 (configuration not stated)
IC50 (Acetylcholinesterase): 0.0291 µM | IC50 (HepG2): 35.5 µM | IC50 (Butyrylcholinesterase): 1.07 µM

O=c1ccc2c([nH]1)CCC(NCCCCNc1c3c(nc4cc(Cl)ccc14)CCCC3)C2 (configuration not stated)
IC50 (Acetylcholinesterase): 0.00294 µM | IC50 (HepG2): 110 µM | IC50 (Butyrylcholinesterase): 0.347 µM

O=c1ccc2c([nH]1)CCC(NCCCCCCCNc1c3c(nc4cc(Cl)ccc14)CCCC3)C2 (configuration not stated)
IC50 [1]: 6.36 µM | IC50 (Acetylcholinesterase): 0.0148 µM | selectivity ratio (in vitro): 2660 | IC50 (HepG2): 39.2 µM | IC50 (Butyrylcholinesterase): 0.893 µM

O=c1ccc2c([nH]1)CCC(NCCCCCCCCNc1c3c(nc4cc(Cl)ccc14)CCCC3)C2 (configuration not stated)
IC50 [1]: 2.19 µM | IC50 (Acetylcholinesterase): 0.0127 µM | selectivity ratio (in vitro): 3340 | IC50 (HepG2): 42.6 µM | IC50 (Butyrylcholinesterase): 1.36 µM

COc1cc2c(cc1OC)C(=O)C(CC1CCN(Cc3ccccc3)CC1)C2 (configuration not stated) [DONEPEZIL]
IC50 (HepG2): 263 µM

O=c1ccc2c([nH]1)CCC(NCCNc1c3c(nc4cc(Cl)ccc14)CCCC3)C2 (configuration not stated)
IC50 [1]: 2.41 µM | IC50 (Acetylcholinesterase): 0.0177 µM | selectivity ratio (in vitro): 12100 | IC50 (HepG2): 214 µM | IC50 (Butyrylcholinesterase): 0.401 µM

O=c1ccc2c([nH]1)CCC(NCCCNc1c3c(nc4cc(Cl)ccc14)CCCC3)C2 (configuration not stated)
AUCt [2]: 246 ng·h/mL | inhibition [3]: Active | Tmax [4]: 1.75 h | Activity (Hippocampus): Active | half-life [5]: 7.16 h | Activity (Mus musculus): Active | half-life [6]: 7.8 h | MRT inf [7]: 8.39 h | half-life [8]: 7.89 h | IC50 [1]: 8.98 µM | IC50 (Acetylcholinesterase): 0.0009 µM | AUC [9]: 1124.93 g/h | AUC [10]: 21.86 g/h | AUC [11]: 279 ng·h/mL | MRT inf [12]: 10.8 h | selectivity ratio (in vitro): 119000 | AUC [13]: 534.14 g/h | MRT inf [14]: 11.1 h | IC50 (HepG2): 107 µM | Tmax [15]: 2.25 h | half-life [16]: 7.49 h | Cmax at […] [17]: 4.02 ng/mL | Cmax [18]: 165 ng/mL | Cmax [19]: 68.3 ng/mL | Cmax [20]: 148 ng/mL | Drug uptake [21]: Not Active | Tmax [22]: 2.75 h | IC50 (Butyrylcholinesterase): 0.2 µM | Tmax [23]: 2.5 h | MRT inf [24]: 11.1 h

O=c1ccc2c([nH]1)CCC(NCCCCCCNc1c3c(nc4cc(Cl)ccc14)CCCC3)C2 (configuration not stated)
IC50 [1]: 11.6 µM | IC50 (Acetylcholinesterase): 0.00602 µM | selectivity ratio (in vitro): 8520 | IC50 (HepG2): 51.3 µM | IC50 (Butyrylcholinesterase): 0.574 µM

O=c1ccc2c([nH]1)CCC(NCCCCCNc1c3c(nc4cc(Cl)ccc14)CCCC3)C2 (configuration not stated)
IC50 [1]: 7.66 µM | IC50 (Acetylcholinesterase): 0.00566 µM | selectivity ratio (in vitro): 8340 | IC50 (HepG2): 47.2 µM | IC50 (Butyrylcholinesterase): 0.503 µM

O=c1ccc2c([nH]1)CCC(NCCCCCCCCCCNc1c3c(nc4cc(Cl)ccc14)CCCC3)C2 (configuration not stated)
IC50 [1]: 2.77 µM | IC50 (Acetylcholinesterase): 0.066 µM | selectivity ratio (in vitro): 260 | IC50 (HepG2): 17.2 µM | IC50 (Butyrylcholinesterase): 3.78 µM
